Assay results: patent US12365656B2, “Oxazolidinone compounds and methods of use thereof as antibacterial agents” (priority 2019, dated 2025)
Values after ≈ are worked out from the molar mass of the structure shown. Where two headings read alike, the source gives them in different places.

Assays:
Format in all cases: cell-based
[1] = system: mitochondrial protein synthesis in HepG2 cells; assay: Mitochondrial protein synthesis assay; details: Homo sapiens, 96 h, 4 days, COX-1 relative to SDH-A / Janus Green, In Cell ELISA, read-out: MPS IC50
[2] = system: Mycobacterium tuberculosis (Mtb-GFP; H37Rv pMSP12::GFP); assay: microbe, parasite or virus in culture; details: Mycobacterium tuberculosis, H37RV, 168 h, pH 6.8, read-out: Mtb Glu MITC95
[3] = system: Mycobacterium tuberculosis (Mtb-GFP; H37Rv pMSP12::GFP); assay: microbe, parasite or virus in culture; details: Mycobacterium tuberculosis, H37RV, 168 h, pH 6.8, read-out: Mtb Cho MITC95

O=C1O[C@@H](CO)CN1c1ccc(-c2ccc(S(=O)(=O)N3CCC3)cc2)c(F)c1 [Example 38, (5R)-3-[4′-(azetidine-1-sulfonyl)-2-fluoro[1,1′-biphenyl]-4-yl]-5-(hydroxymethyl)-1,3-oxazolidin-2-one]
IC50 [1]: > 13 µM | MIC [2]: 6.3 µM (≈ 2.56 µg/mL) | MIC [3]: 6.3 µM (≈ 2.56 µg/mL)

CS(=O)(=O)Cc1ccc(-c2ccc(N3C[C@H](CO)OC3=O)cc2F)cc1 [Example 39]
IC50 [1]: 1.5 µM | MIC [2]: 1.6 µM (≈ 0.607 µg/mL) | MIC [3]: 1.2 µM (≈ 0.455 µg/mL)

CC1(c2c(F)cc(N3C[C@H](CO)OC3=O)cc2F)CCS(=O)(=O)CC1 [Example 41, 4-{2,6-difluoro-4-[(5R)-5-(hydroxymethyl)-2-oxo-1,3-oxazolidin-3-yl]phenyl}-4-methyl-lλ^6-thiane-1,1-dione]
IC50 [1]: > 100 µM | MIC [2]: 6.3 µM (≈ 2.36 µg/mL) | MIC [3]: 9.4 µM (≈ 3.53 µg/mL)

CC(=O)NC[C@H]1CN(c2ccc(N3CCOCC3)c(F)c2)C(=O)O1 [linezolid, reference compound]
IC50 [1]: 8 µM | MIC [2]: 4.58 µM (≈ 1.55 µg/mL) | MIC [3]: 3.14 µM (≈ 1.06 µg/mL)
